Key:
Format in all cases: cell-based, human
[1] = test system: JEG-3 cells; experiment: Effect of PIF and P4 on JEG-3 proteome (2-DE, spot analysis, mass spectrometry)
Protocol: Cell lysates and their protein concentration were prepared and assessed as previously described Frozen cell pellets were dissolved in hot lysis buffer (1% SDS, 100 mM Tris-HCl), and sonicated. Five percent of 2-mercaptoethanol was added. Samples were then dissolved in solubilisation buffer (8 M urea, 2.5 M thiourea, 4% 3-[(3-cholamidopropyl) dimethylammonio]-1-propanesuflate, 50 mM DTT, 24 mM spermine tetrachloride) at room temperature for 1 h. The samples were centrifuged at 12000×g for 30 min. To concentrate the protein samples, acetone precipitation was used. Once the supernatant was discarded the protein pellets were washed with a mixture of ice-cold methanol-chloroform and re-suspended in isoelectric focusing buffer (IEF) (8 M urea, 2.5 M thiourea, 4% 3-[(3-cholamidopropyl) dimethylammonio]-1-propanesuflate).
The IPG strips were then focused using an IPGphor system (BioRad, USA). Rehydrated filter wicks were placed between the electrodes and the IPG strip. […] After IEF, strips were rinsed in deionized water, and stored at −80° C. until the second dimensional […].
For second dimensional […], IPG strips were incubated in equilibrium buffer 1 [6 M/l urea, 20% w/v glycerol, 4% w/v SDS, 0.375 M/l Tris-HCL (pH 8.8), 5% 2-mercaptoethanol] for 15 min at room temperature. […] Strips were then rinsed in electrophoresis buffer (60.57 g Tris base, 288.27 g glycine, 20 g SDS, double distilled H2O up to 20 L). The second dimensional analysis was carried out using a Criterion gel system (Bio-Rad). Each strip was placed into the well of a 12% SDS-PAGE gel (Bio-Rad) and sealed with agarosc solution. Electrophoresis was carried out at 50 V for 30 min and following this at 150 V for 4-5 h. The gel was then fixed overnight in fixing solution (50% methanol, 5% acetic acid, 45% water), and stained using the silver staining protocol.
The gels were scanned and analyzed using SameSpots analysis software (Nonlinear dynamics Ltd). Digitized images from 12 silver-stained gels were analyzed for spot detection and quantification. Image analysis included spot detection, editing, background subtraction and spot matching. A master image was then created, and all spots in the other gels were matched to this master image both manually and digitally. The size of a protein, which approximates the volume of the spot, was calculated by using the software. Spots identified as differentially present were excised and analyzed using mass spectrometry (MS) analysis.
Identified spots were manually excised from the 2-DE gels using a disposable sterile scalpel spot cutter and washed in molecular biology grade water. Each spot was then subjected to in gel digestion alkylation, along with tryptic digestion so as to yield peptide fragments for MS analysis following previously described protocols.
Peptide digests were subjected to MS analysis at the sub-picomole level through the use of a matrix assisted laser desorption ionization-time of flight (MALDI-TOF MS) so as to generate peptide mass fingerprinting (PMF). The MALDI-TOF analysis was carried out using a Bruker Daltonics Reflex IV instrument using a linear mode with a laser power attenuation setting at 30, as described previously.
The expression data were pre-processed by mean-centering (by division and medians), and over median normalized data. A heatmap was generated via hierarchical clustering for examining protein expression and treatment (http://cran.r-project.org). The generation of a heatmap for median centered protein expression data with horizontal hierarchical clustering of different proteins utilized the median linkage agglomeration method and vertical hierarchical clustering of treatment conditions, using complete linkage agglomeration. A correlation distance metric was used for clustering data.

[2] = test system: JEG-3 cells; experiment: ELISA for cytokine secretion by JEG-3 cells; settings: JEG-3, serum-free media, 24 hours, P4 1 μg/ml
Protocol: At the end of the experiments the supernatant was collected and analyzed for cytokine levels. The concentrations of tumor necrosis factor alpha (TNF-a), interleukin (IL)-1, IL-8, IL-10, interferon gamma (IFN-γ), transforming growth factor beta 1 (TGF-[…]) and granulocyte macrophage colony-stimulating factor (GM-CSF) were measured using ELISA kits (eBioscience), following the manufacturer's instructions.

[3] = test system: JEG-3 cells; experiment: Influence of PIF and P4 on expression of HLA class I molecules (flow cytometry, Western blotting, surface antigen quantification); settings: 1 μg/ml P4, 24 hours
Protocol: The cells were then incubated with the HLA-G specific mouse monoclonal antibody MEM-G9m followed by incubation with Alexa Fluor 488 conjugated antibody preparations. Fluorescence was detected by using BD Accuri C6 flow cytometer. The data was analyzed using a Flowing Software V2.5.1. […] Error bar indicates standard deviation from the mean. Statistical analysis was performed with SigmaPlot software. One way Analysis of Variance was employed to test the significance of differences among groups.
The collected cells were further tested for expression for class I HLA molecules by using specific monoclonal antibodies.
Treated and untreated JEG-3 cells, following exposure to test agents were detached, counted, and pelleted as described previously [14]. […] To quantify the final concentration of the proteins we used the Bradford assay following the previously described protocol with some modifications [15]. […] Five μl of each protein sample was then diluted 1:1 with PBS and incubated with the reading reagent at room temperature for 5 min. Finally, the protein concentration was determined using a spectrophotometer, extrapolating each absorbance value over the previously created standard curve. […] A pre-stained standard protein marker (Li-Cor Bioscience) was also loaded onto the gel and run parallel to the protein samples to be analyzed. […]

[4] = P4 1 μg/ml or PIF 200 nM, 24 hours

## CC(=O)[C@H]1CC[C@H]2[C@@H]3CCC4=CC(=O)CC[C@]4(C)[C@H]3CC[C@]12C [P4, Progesterone]
[1]; [4]
  Average Normalized Volumes, ATP5B (spot 71): 283.644
  Average Normalized Volumes, BBB (spot 92): 544.421
  Average Normalized Volumes, CD59 (spot 51): 388.079
  Average Normalized Volumes, CLIC3 (spot 69): 220.958
  Average Normalized Volumes, DCBD2 (spot 67): 413.865
  Average Normalized Volumes, EGFR (spot 30): 313.949
  Average Normalized Volumes, FOXP3 (spot 98): 1035.457
  Average Normalized Volumes, HLAG (spot 89): 961.078
  Average Normalized Volumes, HS74L (spot 8): 407.206
  Average Normalized Volumes, HSP71 (spot 2): 328.658
  Average Normalized Volumes, LMNA (spot 34): 276.712
  Average Normalized Volumes, PDIA3 (spot 24): 425.280
  Average Normalized Volumes, PRDX2 (spot 66): 144.399
  Average Normalized Volumes, PRGR (spot 55): 277.710
  Average Normalized Volumes, ZSC21 / TTP (spot 32): 123.015
[1]; hierarchical clustering, vs control cells
  number of differentially expressed proteins up-regulated (of 19): five
[2]
  IFN-γ secretion: 10 pg/mL
  TNF-α secretion: 1 pg/mL
[2]; PIF 200 nM, mean ± SEM
  GM-CSF secretion: 310 ± 36.3 pg/mL
  IL-1β secretion: 334 ± 27.7 pg/mL
  IL-8 secretion: 685 ± 58.2 pg/mL
  TGF-β1 secretion: 398 ± 32.4 pg/mL
[3]
  levels of HLA-G, -E, -F and -C: increased levels of HLA-G, -E, -F and -C
